Where “and” joins values, the source holds several entries; their conditions need not be identical. Equal entries are not always repeated. Where two headings read alike, the source gives them in different places.

The subject of test [1] is C57BL/6J-Apc^Min/J strain mice. The test can be described thus: In vivo antitumor activity, intestinal polyps. The note with it: 25 mg/kg BID, 60 consecutive days, small intestine. The source says:
C57BL/6J-Apc^Min/J strain mice carry a truncating mutation at codon 850 of the Apc gene and develop intestinal polyps and colorectal neoplasms at the age of 3-6 months. Truncation in the APC gene leads to activation of the Wnt signaling pathway and elevated levels of β catenin are frequently detected in pre-neoplastic/neoplastic lesions in these mice.
At the end of the treatment period, the animals are sacrificed and the number of polyps in the small intestine is counted under a dissection microscope.

Test [2] has as its system EGFP-Axin2 fusion protein. The note with it: read-out: Axin2 Stabilization EC50; HEK293 EGFP-Axin2 cells, 24 hours; Mean ± SEM.
For test [3], the system named is Panc 04.03 cells. The note with it: 11 days.
Test [4] has as its system Wnt-inducible genes (TCF/LEF luciferase reporter in DLD-1 TOPFlash cells). The test is described as follows: cells. The note with it: Homo sapiens, DLD-1, 24 h, read-out: Wnt-inducible gene expression inhibition IC50, DLD-1 TOPFlash cells, 24 hours; Mean ± SEM.
The subject of test [5] is A549 cells. The test is described as follows: cells. The note with it: Homo sapiens, read-out: % Inhibition of Colony Formation.
The subject of test [6] is Capan-2 cells. The test is described as follows: cells. The settings on record: Homo sapiens, read-out: % Inhibition of Colony Formation.
For test [7], the system named is HPAF-II cells. The test can be described thus: cells. The note with it: Homo sapiens, read-out: % Inhibition of Colony Formation.
Test [8] addresses hTNKS1 (Homo sapiens (Human), UniProt O95271). The test can be described thus: hTNKS1 enzyme activity ELISA (poly ADP ribose incorporation into TRF1). The class given is biochemical. The settings on record: Mean ± SEM.

hTNKS1, sequence (O95271 whole entry, change not shown): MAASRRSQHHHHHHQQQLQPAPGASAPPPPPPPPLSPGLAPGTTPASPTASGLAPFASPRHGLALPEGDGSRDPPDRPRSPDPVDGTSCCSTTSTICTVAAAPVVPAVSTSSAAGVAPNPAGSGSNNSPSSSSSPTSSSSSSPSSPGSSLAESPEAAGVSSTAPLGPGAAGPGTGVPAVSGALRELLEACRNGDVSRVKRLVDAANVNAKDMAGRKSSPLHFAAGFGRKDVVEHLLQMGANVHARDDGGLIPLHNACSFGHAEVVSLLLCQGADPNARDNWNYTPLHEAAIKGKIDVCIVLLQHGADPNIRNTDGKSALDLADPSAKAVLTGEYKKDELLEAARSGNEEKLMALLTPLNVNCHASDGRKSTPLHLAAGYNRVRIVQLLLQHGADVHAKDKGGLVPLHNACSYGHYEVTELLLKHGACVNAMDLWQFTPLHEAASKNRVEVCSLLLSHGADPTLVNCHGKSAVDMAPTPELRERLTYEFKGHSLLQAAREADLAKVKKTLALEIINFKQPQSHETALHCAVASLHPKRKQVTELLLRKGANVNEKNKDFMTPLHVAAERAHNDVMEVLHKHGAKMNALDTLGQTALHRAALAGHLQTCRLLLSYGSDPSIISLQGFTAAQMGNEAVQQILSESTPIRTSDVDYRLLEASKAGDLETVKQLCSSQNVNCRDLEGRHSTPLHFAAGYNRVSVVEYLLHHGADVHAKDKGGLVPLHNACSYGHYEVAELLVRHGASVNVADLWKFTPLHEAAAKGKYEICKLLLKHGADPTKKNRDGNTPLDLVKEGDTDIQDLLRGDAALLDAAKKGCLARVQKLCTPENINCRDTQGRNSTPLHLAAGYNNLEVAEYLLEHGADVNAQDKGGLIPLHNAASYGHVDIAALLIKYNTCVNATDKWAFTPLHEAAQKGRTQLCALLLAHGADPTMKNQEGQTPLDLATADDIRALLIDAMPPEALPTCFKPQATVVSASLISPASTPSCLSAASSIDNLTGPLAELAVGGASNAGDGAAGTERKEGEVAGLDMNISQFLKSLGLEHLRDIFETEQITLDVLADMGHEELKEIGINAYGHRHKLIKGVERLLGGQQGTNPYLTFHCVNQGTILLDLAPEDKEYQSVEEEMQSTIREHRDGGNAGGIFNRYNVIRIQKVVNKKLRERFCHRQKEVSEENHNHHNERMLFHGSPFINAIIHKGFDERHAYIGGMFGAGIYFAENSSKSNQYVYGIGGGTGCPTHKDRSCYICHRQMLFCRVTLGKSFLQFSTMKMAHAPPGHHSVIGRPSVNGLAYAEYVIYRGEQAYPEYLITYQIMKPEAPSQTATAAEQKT

The EC50 is the concentration needed to bring the measured effect to its halfway point. As a reminder, the IC50 is the concentration at which inhibition is half-maximal. Usually inhibition stands for the relative decrease from the control value, in per cent. Turning to `CN1CCCc2c1nc(N1CCN(Cc3ncccn3)CC1)[nH]c2=O` [Example 1, 8-Methyl-2-[4-(pyrimidin-2-ylmethyl)piperazin-1-yl]-3,5,6,7-tetrahydropyrido[2,3-d]pyrimidin-4-one], the “Average Number of polyps per Animal” value in test [1] is “statistically significant lower number of tumors and 4.3 ± 0.70”. In addition, the EC50 in test [2] stood at 65.9 nM. Further, the “% Inhibition of Colony Formation” value was −34.35% in test [3] (Panc 04.03, 0.03 μM); 51.39% in test [3] (Panc 04.03, 0.11 μM); 92.79% in test [3] (Panc 04.03, 0.33 μM); 92.51% in test [3] (Panc 04.03, 1 μM); 90.03% in test [3] (Panc 04.03, 3 μM). Also, the IC50 in test [4] turned out to be 13.2 nM. Further, the inhibition at 0.03 µM is 25.5% in test [5], -20.8% in test [6] and 2.44% in test [7]. Further, the inhibition at 0.11 µM in test [5] worked out at 46.5%; in test [6], 18%; in test [7], 40.5%. The inhibition at 0.33 µM in test [5] came to 54.2%; in test [6], 55.9%; in test [7], 61.6%. Further, the inhibition at 1 µM in test [5] came out at 74.3%; in test [6] it was 63.9%; in test [7], 85.2%. Moreover, the results for the inhibition at 3 µM in test [5], in test [6] and in test [7] were 72.1%, 70.7% and 88.2%, respectively.

As for `CC(c1ncc(F)cn1)N1CCN(c2nc3c(c(=O)[nH]2)CCCN3C)CC1` (stereo not drawn) [Example 5], the IC50 in test [8] worked out at 85.2 nM.

The values above are taken from patent US9624218B2 (Eli Lilly and Company, priority 2014, dated 2017).
